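Values below derive from 48-hour exposures of cells grown in 96-well plates, with endpoints linearly interpolated between the two concentrations bracketing the appropriate inhibition level. At the GI50, growth is halved.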 The source made the active and inactive calls. No stated cut-off is given here; in the data, active = GI50 up to about 1.1 µM and inactive = higher.
Tests used:
Assay in all cases: NCI tumour cell line growth inhibition, 48 h
NCI/ADR-RES = system: NCI/ADR-RES
A498 = system: A498
IGROV-1 = system: IGROV-1
SF-539 = system: SF-539
UACC-62 = system: UACC-62
SW-620 = system: SW-620
UO-31 = system: UO-31
CAKI-1 = system: CAKI-1
KM12 = system: KM12
HCT-15 = system: HCT-15
SK-MEL-5 = system: SK-MEL-5
OVCAR-4 = system: OVCAR-4
HOP-92 = system: HOP-92
NCI-H522 = system: NCI-H522
K562 = system: K562
NCI-H460 = system: NCI-H460
HCC 2998 = system: HCC 2998
Hs-578T = system: Hs-578T
SF-295 = system: SF-295
RPMI-8226 = system: RPMI-8226

Structure (SMILES) | GI50 (NCI/ADR-RES) | GI50 (A498) | GI50 (IGROV-1) | GI50 (SF-539) | GI50 (UACC-62) | GI50 (SW-620) | GI50 (UO-31) | GI50 (CAKI-1) | GI50 (KM12) | GI50 (HCT-15) | GI50 (SK-MEL-5) | GI50 (OVCAR-4) | GI50 (HOP-92) | GI50 (NCI-H522) | GI50 (K562) | GI50 (NCI-H460) | GI50 (HCC 2998) | GI50 (Hs-578T) | GI50 (SF-295) | GI50 (RPMI-8226)
Cc1ccc2c(c1)nc1n2C(N)=Nc2ccccc2S1 | 43.4 µM (inactive) | 49.1 µM (inactive) | 6.4 µM (inactive) | > 95.5 µM (inactive) | > 60.8 µM (inactive) | 40 µM (inactive) | 50.4 µM (inactive) | > 100 µM (inactive) | 43.8 µM (inactive) | 24.2 µM | 28.2 µM (inactive) | > 100 µM (inactive) | > 40.6 µM (inactive) | > 63.2 µM (inactive) | 5.79 µM (inactive) | 5.92 µM (inactive) | 51.3 µM (inactive) | > 73.5 µM (inactive) | 47.6 µM (inactive) | 19.6 µM (inactive)
COc1cc([C@@H]2c3cc4c(cc3[C@@H](Nc3ccc([N+](=O)[O-])cc3C(=O)c3ccccc3)[C@H]3COC(=O)[C@H]23)OCO4)cc(OC)c1OC | 0.587 µM (active) | 0.415 µM (active) | 0.5 µM (active) | 0.201 µM (active) | 0.164 µM (active) | 0.233 µM (active) | 0.23 µM (active) | 0.381 µM (active) | 0.266 µM (active) | 0.269 µM | 0.2 µM (active) | > 41.8 µM (inactive) | 8.05 µM (inactive) | 0.16 µM (active) | 0.156 µM (active) | 0.258 µM (active) | 0.436 µM (active) | 5.05 µM (inactive) | 0.196 µM (active) | 0.394 µM (active)
CN1CC[N+](C)=C1c1ccccc1 | > 100 µM (inactive) | > 100 µM (inactive) | > 100 µM (inactive) | > 100 µM (inactive) |  | > 100 µM (inactive) | > 100 µM (inactive) | > 100 µM (inactive) | > 100 µM (inactive) | > 100 µM | > 100 µM (inactive) | > 100 µM (inactive) | > 100 µM (inactive) | > 100 µM (inactive) | > 100 µM (inactive) | > 100 µM (inactive) | > 100 µM (inactive) | > 100 µM (inactive) | > 100 µM (inactive) | > 100 µM (inactive)
C#C[C@]1(O)CC[C@H]2[C@@H]3CCC4=C/C(=N/OC(=O)c5cccc6c(=O)c7ccccc7[nH]c56)CC[C@@H]4[C@H]3CC[C@@]21C | 58.6 µM (inactive) | > 100 µM (inactive) | 68.4 µM (inactive) | 29.5 µM (inactive) | 35.6 µM (inactive) | 56.2 µM (inactive) | 53.5 µM (inactive) | 37.5 µM (inactive) | 34.8 µM (inactive) | 36.5 µM | 20.2 µM (inactive) | > 100 µM (inactive) | > 100 µM (inactive) | 18.2 µM (inactive) | 17.3 µM (inactive) | 37.2 µM (inactive) | 50.5 µM (inactive) | 54.1 µM (inactive) | 92 µM (inactive) | 13.6 µM (inactive)
CCOC(=O)Cn1c(=O)ccn(COCCO)c1=O | > 100 µM (inactive) | > 100 µM (inactive) | > 100 µM (inactive) | > 100 µM (inactive) |  | > 100 µM (inactive) | > 100 µM (inactive) | > 100 µM (inactive) | > 100 µM (inactive) | > 100 µM | > 100 µM (inactive) | > 100 µM (inactive) | > 100 µM (inactive) | > 100 µM (inactive) | > 100 µM (inactive) | > 100 µM (inactive) | > 100 µM (inactive) | > 100 µM (inactive) |  | > 100 µM (inactive)
CC(=O)OCC1OC(N2C(C)=C(C(C)=O)C(c3ccco3)C(C#N)=C2S)C(OC(C)=O)C(OC(C)=O)C1OC(C)=O (stereo not drawn) | > 100 µM (inactive) | > 100 µM (inactive) | > 100 µM (inactive) | > 100 µM (inactive) | > 100 µM (inactive) | > 100 µM (inactive) | 81.1 µM (inactive) | > 100 µM (inactive) | > 100 µM (inactive) | > 100 µM | > 100 µM (inactive) | > 100 µM (inactive) | > 100 µM (inactive) | > 100 µM (inactive) | > 100 µM (inactive) | > 100 µM (inactive) | > 100 µM (inactive) | > 100 µM (inactive) | > 100 µM (inactive) | > 100 µM (inactive)
CC(=O)Nc1cc2cc(N)ccc2oc1=O | > 100 µM (inactive) | > 100 µM (inactive) | > 100 µM (inactive) | > 100 µM (inactive) |  | > 100 µM (inactive) | > 100 µM (inactive) | > 100 µM (inactive) | > 100 µM (inactive) | > 100 µM | > 100 µM (inactive) | > 100 µM (inactive) | > 100 µM (inactive) | > 100 µM (inactive) | > 100 µM (inactive) | > 100 µM (inactive) | > 100 µM (inactive) | > 100 µM (inactive) | > 100 µM (inactive) | > 100 µM (inactive)
CC1=NN(c2nc(N)nc(CC#N)n2)C(C)(C)C1 | > 100 µM (inactive) | > 100 µM (inactive) | > 100 µM (inactive) | > 100 µM (inactive) | > 100 µM (inactive) | > 100 µM (inactive) | > 100 µM (inactive) | > 100 µM (inactive) | > 100 µM (inactive) | > 100 µM | > 100 µM (inactive) | > 100 µM (inactive) | > 100 µM (inactive) |  | > 100 µM (inactive) | > 100 µM (inactive) | > 100 µM (inactive) | > 100 µM (inactive) | > 100 µM (inactive) | > 100 µM (inactive)
CCC1=NC(N/N=C/c2ccccc2O)=N/C1=C\c1ccccc1O | 2.68 µM (inactive) | 26.7 µM (inactive) | 11.5 µM (inactive) |  | 9.79 µM (inactive) | 7.5 µM (inactive) | 2.7 µM (inactive) | 19.6 µM (inactive) | 17 µM (inactive) | 2.07 µM | 19.5 µM (inactive) | 5.6 µM (inactive) | 21.1 µM (inactive) | 6.43 µM (inactive) | 12.2 µM (inactive) | 2.57 µM (inactive) | 10.2 µM (inactive) | 23.9 µM (inactive) | 7.69 µM (inactive) | 12.9 µM (inactive)
O=C(O)c1ccccc1.[Ag] | 34.6 µM (inactive) | 19.2 µM (inactive) | 15.7 µM (inactive) | 21.3 µM (inactive) | 18.1 µM (inactive) |  | 2.13 µM (inactive) | 5.5 µM (inactive) | 19.5 µM (inactive) | 21.6 µM | 4.73 µM (inactive) | 14.7 µM (inactive) | 21.7 µM (inactive) | 1.5 µM (inactive) | 3.2 µM (inactive) | 11.1 µM (inactive) | 19.2 µM (inactive) | 28.2 µM (inactive) | 64 µM (inactive) | 2.23 µM (inactive)
N=c1c2c(=S)n(-c3ccccc3)c(=S)n(-c3ccccc3)c2nc(SCCN2CCCC2)n1-c1ccccc1 | 6.44 µM (inactive) | 11 µM (inactive) | 1.77 µM (inactive) | 5.02 µM (inactive) | 1.63 µM (inactive) | 1.76 µM (inactive) |  | 1.56 µM (inactive) | 5.2 µM (inactive) | 1.6 µM | 3.27 µM (inactive) | 3 µM (inactive) | 1.71 µM (inactive) | 1.72 µM (inactive) | 0.762 µM (active) | 1.72 µM (inactive) | 1.31 µM (inactive) | 3.9 µM (inactive) | 15.2 µM (inactive) | 0.341 µM (active)
O=c1cc(O)c2c(O)cc(O)cc2o1 | > 100 µM (inactive) | > 100 µM (inactive) | > 100 µM (inactive) | > 100 µM (inactive) | > 100 µM (inactive) | > 100 µM (inactive) |  | > 100 µM (inactive) |  | > 100 µM | > 100 µM (inactive) | > 100 µM (inactive) | > 100 µM (inactive) | > 100 µM (inactive) | > 100 µM (inactive) | > 100 µM (inactive) | > 100 µM (inactive) | > 100 µM (inactive) | > 100 µM (inactive) | > 100 µM (inactive)
CCOC(=O)c1nc2cc(F)cc(F)c2[nH]c1=O | > 100 µM (inactive) | > 100 µM (inactive) | > 100 µM (inactive) | > 100 µM (inactive) | > 100 µM (inactive) | > 100 µM (inactive) | 72.8 µM (inactive) | > 100 µM (inactive) | > 100 µM (inactive) | > 100 µM | > 100 µM (inactive) | > 100 µM (inactive) | > 100 µM (inactive) |  | > 100 µM (inactive) | > 100 µM (inactive) | > 100 µM (inactive) | > 100 µM (inactive) | > 100 µM (inactive) | > 100 µM (inactive)
Cc1ccc(CC(Cc2ccc(C)cc2C(=O)O)C(=O)O)cc1 (stereo not drawn) | > 100 µM (inactive) | > 100 µM (inactive) | > 100 µM (inactive) | > 100 µM (inactive) | 43 µM (inactive) | > 100 µM (inactive) | > 100 µM (inactive) | > 100 µM (inactive) | > 100 µM (inactive) | > 100 µM | > 100 µM (inactive) | > 100 µM (inactive) | > 100 µM (inactive) | > 100 µM (inactive) |  | > 100 µM (inactive) | > 100 µM (inactive) | > 100 µM (inactive) | > 100 µM (inactive) | > 100 µM (inactive)

Reference: ChEMBL document CHEMBL1201862, “PubChem BioAssay data set” (2004)
